Measured values published in patent publication US10323037B2, “Aminopyridazinone compounds as protein kinase inhibitors” (Jiangsu Hengrui Medicine Co., Ltd., priority 2014, dated 2019).

tested on: TMD-8 cells; assay: Cell proliferation assay (CellTiter-Glo), TMD-8; type: cell-based; settings: Homo sapiens, TMD8, 120 h; 5-day treatment; read-out: TMD8 cells growth IC50
Method: Cell proliferation assay: TMD-8 and SU-DHL-1 cells were maintained at 37° C. in a humidified atmosphere with 5% CO2 in the recommended medium and serum concentrations. For cell proliferation assay, cells were seeded in 96-well pates at a density of 5,000 to 10,000 cells per well and cultured overnight at 37° C. in recommended medium supplemented with 5-10% FBS. On the next day, the test articles at various concentrations or vehicle control (0.5% DMSO) were added into cell culture. After 5-day treatment, the growth of cells was assayed by the CellTiter-Glo® Luminestceaent Cell Viability Assay (Promega). IC50 values were calculated using GraphPad Prism by plotting the logarithm of the concentration versus percent inhibition of cell growth as compared with the vehicle control.

`CN(C)C/C=C/C(=O)N1CCCC(n2cc(-c3ccc(Oc4ccccc4)cc3)c3c(N)n[nH]c(=O)c32)C1` (stereo not drawn) [Example 38, 4-amino-1-[1-[(E)-4-(dimethylamino)but-2-enoyl]-3-piperidyl]-3-(4-phenoxyphenyl)-6H-pyrrolo[2,3-d]pyridazin-7-one] and `C/C=C/C(=O)N1CCC[C@@H](n2cc(-c3ccc(Oc4ccccc4)cc3)c3c(N)n[nH]c(=O)c32)C1` [Example 25, 4-amino-1-[(3R)-1-[(E)-but-2-enoyl]-3-piperidyl]-3-(4-phenoxyphenyl)-6H-pyrrolo[2,3-d]pyridazin-7-one] cannot be ordered by IC50: no more than 10 nM for the first, 10 to 1000 nM for the second.

Compared with `CN(C)C/C=C/C(=O)N1CCCC(n2cc(-c3ccc(Oc4ccc(F)cc4)cc3)c3c(N)n[nH]c(=O)c32)C1` (stereo not drawn) [Example 61, 4-amino-1-[1-[(E)-4-(dimethylamino)but-2-enoyl]-3-piperidyl]-3-[4-(4-fluorophenoxy)phenyl]-6H-pyrrolo[2,3-d]pyridazin-7-one], `COc1ccc(-c2cn(C3CCCN(C(=O)/C=C/CN(C)C)C3)c3c(=O)[nH]nc(N)c23)cc1` (stereo not drawn) [Example 52, 4-amino-1-[1-[(E)-4-(dimethylamino)but-2-enoyl]-3-piperidyl]-3-(4-methoxyphenyl)-6H-pyrrolo[2,3-d]pyridazin-7-one] is higher in IC50: 10 to 1000 nM for the first, 1000 to 100000 nM for the second.

`Nc1n[nH]c(=O)c2c1c(-c1ccc(Oc3ccccc3)cc1)cn2[C@@H]1CCCN(C(=O)/C=C/CNC2CC2)C1` [Example 28, 4-amino-1-[(3R)-1-[(E)-4-(cyclopropylamino)but-2-enoyl]-3-piperidyl]-3-(4-phenoxyphenyl)-6H-pyrrolo[2,3-d]pyridazin-7-one] and `Nc1n[nH]c(=O)c2c1c(-c1ccc(Oc3ccccc3)cc1)cn2[C@@H]1CCCN(C(=O)CCl)C1` [Example 22, 4-amino-1-[(3R)-1-(2-chloroacetyl)-3-piperidyl]-3-(4-phenoxyphenyl)-6H-pyrrolo[2,3-d]pyridazin-7-one] cannot be ordered by IC50: no more than 10 nM for the first, 10 to 1000 nM for the second.

`CC#CC(=O)N1CCC[C@@H](n2cc(-c3ccc(Oc4c(F)cccc4F)cc3)c3c(N)n[nH]c(=O)c32)C1` [Example 117, (R)-4-amino-1-(1-(but-2-ynoyl)piperidin-3-yl)-3-(4-(2,6-difluorophenoxy)phenyl)-1H-pyrrolo[2,3-d]pyridazin-7(6H)-one] and `C=CC(=O)N1CCC[C@@H](n2cc(-c3ccc(Oc4c(F)cccc4Cl)cc3)c3c(N)n[nH]c(=O)c32)C1` [Example 78, (R)-1-(1-acryloylpiperidin-3-yl)-4-amino-3-(4-(2-chloro-6-fluorophenoxy)phenyl)-1H-pyrrolo[2,3-d]pyridazin-7(6H)-one] cannot be ordered by IC50: 10 to 1000 nM for the first, no more than 10 nM for the second.

`C=CC(=O)N[C@H]1CC[C@@H](n2cc(-c3ccc(Oc4ccccc4F)cc3)c3c(N)n[nH]c(=O)c32)CC1` [Example 104, N-((1s,4s)-4-(4-amino-3-(4-(2-fluorophenoxy)phenyl)-7-oxo-6,7-dihydro-1H-pyrrolo[2,3-d]pyridazin-1-yl)cyclohexyl)acrylamide] and `N#CN1CCC[C@@H](n2cc(-c3ccc(Oc4ccccc4F)cc3)c3c(N)n[nH]c(=O)c32)C1` [Example 87, (R)-3-(4-amino-3-(4-(2-fluorophenoxy)phenyl)-7-oxo-6,7-dihydro-1H-pyrrolo[2,3-d]pyridazin-1-yl)piperidine-1-carbonitrile] cannot be ordered by IC50: no more than 10 nM for the first, no more than 10 nM for the second.

`CN(C)C/C=C/C(=O)Nc1cccc(-n2cc(-c3ccc(Oc4ccccc4F)cc3)c3c(N)n[nH]c(=O)c32)c1` [Example 92, (E)-N-[3-[4-amino-3-[4-(2-fluorophenoxy)phenyl]-7-oxo-6H-pyrrolo[2,3-d]pyridazin-1-yl]phenyl]-4-(dimethylamino)but-2-enamide] and `CC#CC(=O)N1C[C@H](OC)[C@@H](n2cc(-c3ccc(Oc4ccccc4F)cc3)c3c(N)n[nH]c(=O)c32)C1` [Example 98, 4-amino-1-((3S,4S)-1-(but-2-ynoyl)-4-methoxypyrrolidin-3-yl)-3-(4-(2-fluorophenoxy)phenyl)-1H-pyrrolo[2,3-d]pyridazin-7(6H)-one and Enantiomer] cannot be ordered by IC50: no more than 10 nM for the first, 10 to 1000 nM for the second.
